This test deals with Aedes aegypti UGAL mosquito strain (adult female). Kind of test: Mortality assay on treated filter paper. It counts as in vivo. The settings on record: 0.5% solution; within the first 20 minutes; FIG. 4. As to the method: A mortality assay was employed to evaluate mosquito mortality in response to exposure to eleven different treatments including water, a series of NKT dilutions, and 0.5% permethrin. The Aedes aegypti UGAL mosquito strain (adult female) was used in this example.
The experiments were conducted in a well-lit, temperature- and humidity-controlled room. The room was 22-24° C. with humidity at 40-45%. To conduct these experiments, each treatment had four replicates under the same conditions. A filter paper, 10 cm in diameter, was treated with 340 μl of an experimental or control solution using a standardized spray bottle (113.3 μl/spray) that was held approximately 5 cm away from the paper. The treated filter paper was placed into an open petri dish with a diameter of 10 cm. […] Female mosquitoes were then anesthetized on ice for five minutes. After 60 minutes, 10 ice-anesthetized adult female mosquitoes were transferred onto the treated paper using soft featherweight forceps. The petri dish lid was placed on top, and the mosquitoes were given two minutes to revive before the timer was started. Mosquitoes were then monitored every five minutes. Mosquitoes on their back were considered knocked down and marked as deceased in these experiments. […] Log-rank (Mantel-Cox) test was performed for comparison of survival curves.

As for `CC1(C)C(C=C(Cl)Cl)C1C(=O)OCc1cccc(Oc2ccccc2)c1` (stereo not shown) [permethrin], the knockdown effect entry is given as “strong immediate knockdown effect”.

(Values after patent publication US20240057595A1, “INSECT REPELLENT COMPOSITIONS” (Manus Bio Inc., priority 2020, published 2024).)
